In patent US7851445B2, “Angiogenic heparin-binding epitopes, peptide amphiphiles, self-assembled compositions and related methods of use” (Northwestern University, priority 2005, dated 2010) one finds association constant and solubility in water data, which are given here for 2 compounds.

Series [1] in a line: Isothermal titration calorimetry of heparin into HBPA solution. Particulars: ITC, heparin titrated into HBPA in water, fit for a single type of binding site. From the text: Isothermal titration calorimetry was used to titrate increments of heparin independently into both the HBPAs and measured the heat released upon binding as a function of the molar ratio. The data obtained was integrated and fitted to a nonlinear function as previously described (Fromm, J. R., et al, “Differences in the Interaction of Heparin with Arginine and Lysine and the Importance of These Basic-Amino-Acids in the Binding of Heparin to Acidic Fibroblast Growth-Factor” Arch. Biochem. Biophys. 323 (1997) 279) to obtain an association constant of 10^7 in both cases (see FIGS. 3E and 3F). Despite similarity in their binding constants, the binding interaction of HBPA-1 and HBPA-2 were energetically very different. […] Such results can be explained with reference to their respective structures. HBPA-1 has hydrophobic residues on the periphery of its peptide chain and the increase in entropy is possibly due to displacement of solvent water molecules from these residues upon heparin interaction.
Characterization of the self-assembly. […] The images were analyzed using the Leica LCS imaging software. […] A frequency sweep experiment was performed at 3% strain with a ten-minute wait time (both determined by independently performing an amplitude sweep and a time strain experiment) to obtain 17 data points between angular frequencies of 0.1 to 10 rad/s. […]
In general terms: In ITC the heat of successive injections is recorded.

Series [2] is described as follows: Solubility in water. In kind it is physicochemical.

Where a SMILES comes first, the peptide text is derived from it. The star is where a group is joined. Palmitoyl = CCCCCCCCCCCCCCCC(=O)*

Take `CCCCCCCCCCCCCCCC(=O)N[C@@H](C)C(=O)N[C@@H](C)C(=O)N[C@@H](C)C(=O)N[C@@H](C)C(=O)NCC(=O)NCC(=O)NCC(=O)N[C@@H](CC(C)C)C(=O)N[C@@H](CC(C)C)C(=O)NCC(=O)N[C@@H](C)C(=O)N[C@@H](CCCNC(=N)N)C(=O)N[C@@H](CCCCN)C(=O)N[C@@H](CCCCN)C(=O)N[C@@H](CCCCN)C(N)=O` [HBPA-2] (Palmitoyl-AAAAGGGLLGARKKK-NH2): in series [1], the association constant is on record as 10^7. Besides, the solubility in water result in series [2] is given as “readily soluble in water”.

Regarding `CCCCCCCCCCCCCCCC(=O)N[C@@H](C)C(=O)N[C@@H](C)C(=O)N[C@@H](C)C(=O)N[C@@H](C)C(=O)NCC(=O)NCC(=O)NCC(=O)N[C@@H](CC(C)C)C(=O)N[C@@H](CCCNC(=N)N)C(=O)N[C@@H](CCCCN)C(=O)N[C@@H](CCCCN)C(=O)N[C@@H](CC(C)C)C(=O)NCC(=O)N[C@@H](CCCCN)C(=O)N[C@@H](C)C(N)=O` [HBPA-1] (Palmitoyl-AAAAGGGLRKKLGKA-NH2), the association constant in series [1] was 10^7. The solubility in water result in series [2] is given as “readily soluble in water”.
